Experimental data taken from US11779585B2 (priority 2020, dated 2023).
“And” between values parts separate entries of the source, which are not always exact repeats. Equal values may be shown once. Read-outs that look alike come from different tables or passages of the source.

Experiments:
SARS-CoV2 = test: microbe, parasite or virus in culture; assay type: cell-based, SARS-CoV-2; details: for inhibition at 0.075 µM: Severe acute respiratory syndrome coronavirus 2, Vero C1008, 0.075 μM; for inhibition at 0.15 µM: Severe acute respiratory syndrome coronavirus 2, Vero C1008, 0.15 μM; for inhibition at 0.3 µM: Severe acute respiratory syndrome coronavirus 2, Vero C1008, 0.3 μM; for inhibition at 0.6 µM: Severe acute respiratory syndrome coronavirus 2, Vero C1008, 0.6 μM
MERS-CoV Jordan virus = assay type: cell-based; details: at a concentration of 0.1 μM, FIG. 1
SARS-CoV-2 [1] = test: SARS-CoV-2 infection of VeroE6 cells, 48 hours, MOI 0.012; assay type: cell-based
SARS-CoV-2 [2] = test: SARS-CoV-2 infection of Calu3 human lung cells, 72 hours, MOI 2; assay type: cell-based; details: Severe acute respiratory syndrome coronavirus 2, Calu-3, read-out: Efficacy IC90
[3] = cited from earlier work
[4] = African green monkeys, 1.6 mg/kg × 14 days, total dose 22.4; cited from earlier work
[5] = Mice, cited from earlier work
[6] = Dogs, cited from earlier work
[7] = Rats, cited from earlier work
[8] = cited from earlier work; remark: listed apart in the source
[9] = 0.15 μM, title MOI 0.6 (text MOI 1.3), Plate 1
[10] = 0.3 μM, title MOI 0.6 (text MOI 1.3), Plate 1
[11] = title MOI 0.6 (text MOI 1.3), Plate 1
[12] = title MOI 0.6 (text MOI 1.3), Plate 2

SMILES: NC(=O)c1cn([C@@H]2O[C@H](CO)[C@@H](O)[C@H]2O)c2ncnc(N)c12 [Oya1, 4-amino-7-((2R,3R,4S,5R)-3,4-dihydroxy-5-(hydroxymethyl)tetrahydrofuran-2-yl)-7H-pyrrolo[2,3-d]pyrimidine-5-carboxamide]
- fold increase in activity over chlorpromazine HCl (SARS-CoV2): 1000 fold
- Inhibition (SARS-CoV2; 0.0047 μM, MOI 0.6, Plate 2): 1.733% and −3.975% and 4.262%
- Inhibition (SARS-CoV2; 0.0047 μM, title MOI 0.6 (text MOI 1.3), Plate 2): −0.7543% and −8.894% and 0.3653%
- Inhibition (SARS-CoV2; 0.0094 μM, MOI 0.2, Plate 1): 24.36% and 12.99%
- Inhibition (SARS-CoV2; 0.0094 μM, MOI 0.4, Plate 1): 9.365% and 6.857% and 1.875%
- Inhibition (SARS-CoV2; 0.0094 μM, title MOI 0.6 (text MOI 1.3), Plate 2): 5.994% and 7.809% and 12.95%
- Inhibition (SARS-CoV2; 0.0188 μM, title MOI 0.6 (text MOI 1.3), Plate 1): 4.894% and 1.871% and −1.054%
- fold better IC50 than GS-441524 (SARS-CoV2; 0.03 μM vs 1.4 μM): 47 fold
- Inhibition (SARS-CoV2; 0.0375 μM, MOI 0.2, Plate 2): 31.89% and 46.61%
- Inhibition (SARS-CoV2; 0.0375 μM, MOI 0.4, Plate 1): 12.31% and 18.82%
- Inhibition (SARS-CoV2; 0.0375 μM, MOI 0.6, Plate 1): 27.4624% and 39.74% and 52.32%
- Inhibition (SARS-CoV2; 0.0375 μM, MOI 0.6, Plate 2): 59.38% and 43.5% and 83.02%
- Inhibition (SARS-CoV2; 0.075 μM, MOI 0.2, Plate 1): 81.55% and 79.85%
- Inhibition (SARS-CoV2; 0.075 μM, MOI 0.2, Plate 2): 88.5915% and 83.72% and 67.19%
- Inhibition (SARS-CoV2; 0.075 μM, MOI 0.4, Plate 1): 50.83% and 69.6% and 36.13%
- Inhibition (SARS-CoV2; 0.075 μM, MOI 0.4, Plate 2): 24.91% and 28.1512%
- Inhibition (SARS-CoV2; 0.075 μM, MOI 0.6, Plate 1): 98.66% and 98.3%
- Inhibition (SARS-CoV2; 0.075 μM, MOI 0.6, Plate 2): 97.59%
- Inhibition (SARS-CoV2; 0.075 μM, title MOI 0.6 (text MOI 1.3), Plate 1): 100.0792% and 80.42%
- Inhibition (SARS-CoV2; 0.075 μM, title MOI 0.6 (text MOI 1.3), Plate 2): 99.3891% and 97.8301%
- Inhibition (SARS-CoV2; 0.15 μM, MOI 0.2, Plate 1): 99.12% and 95.59%
- Inhibition (SARS-CoV2; 0.15 μM, MOI 0.2, Plate 2): 99.22%
- Inhibition (SARS-CoV2; 0.15 μM, MOI 0.4, Plate 1): 98.7% and 94.16%
- Inhibition (SARS-CoV2; 0.15 μM, MOI 0.4, Plate 2): 86.8%
- Inhibition (SARS-CoV2; 0.15 μM, MOI 0.6, Plate 1): 99.78% and 99.74%
- Inhibition (SARS-CoV2; [9]): 100.3795%
- Inhibition (SARS-CoV2; 0.3 μM, MOI 0.2, Plate 1): 99.69%
- Inhibition (SARS-CoV2; 0.3 μM, MOI 0.2, Plate 2): 99.99%
- Inhibition (SARS-CoV2; 0.3 μM, MOI 0.4, Plate 1): 99.72%
- Inhibition (SARS-CoV2; 0.3 μM, MOI 0.6, Plate 1): 85.36%
- Inhibition (SARS-CoV2; [10]): 97.59%
- Inhibition (SARS-CoV2; 0.6 μM, MOI 0.2, Plate 1): 99.15%
- Inhibition (SARS-CoV2; 0.6 μM, MOI 0.6, Plate 2): 96.04%
- fold greater efficacy (IC50) than remdesivir (SARS-CoV2; Oya1 0.03 μM vs remdesivir 0.77 μM (Wang et al.)): 25 fold
- IC50 (SARS-CoV2; Severe acute respiratory syndrome coronavirus 2, Vero C1008): 30 nM
- inhibition at 0.0047 µM (SARS-CoV2; Severe acute respiratory syndrome coronavirus 2, Vero C1008, 0.0047 μM, MOI 0.4, Plate 2): 8.02%
- inhibition at 0.0094 µM (SARS-CoV2; Severe acute respiratory syndrome coronavirus 2, Vero C1008, 0.0094 μM, MOI 0.4, Plate 2): 15.2%
- inhibition at 0.0188 µM (SARS-CoV2; Severe acute respiratory syndrome coronavirus 2, Vero C1008, 0.0188 μM, MOI 0.4, Plate 2): 15.6%
- inhibition at 0.0375 µM (SARS-CoV2; Severe acute respiratory syndrome coronavirus 2, Vero C1008, 0.0375 μM, MOI 0.4, Plate 1): 10.9%
- inhibition at 0.075 µM (SARS-CoV2; MOI 0.2, Plate 1): 67.8%
- inhibition at 0.075 µM (SARS-CoV2; MOI 0.4, Plate 2): 19.8%
- inhibition at 0.15 µM (SARS-CoV2; MOI 0.2, Plate 1): 97.2%
- inhibition at 0.15 µM (SARS-CoV2; MOI 0.2, Plate 2): 96%
- inhibition at 0.15 µM (SARS-CoV2; MOI 0.4, Plate 1): 95.9%
- inhibition at 0.15 µM (SARS-CoV2; MOI 0.4, Plate 2): 83.4%
- inhibition at 0.15 µM (SARS-CoV2; MOI 0.6, Plate 1): 98.6%
- inhibition at 0.15 µM (SARS-CoV2; MOI 0.6, Plate 2): 99.7%
- inhibition at 0.15 µM (SARS-CoV2; [11]): 101%
- inhibition at 0.15 µM (SARS-CoV2; [12]): 101%
- inhibition at 0.3 µM (SARS-CoV2; MOI 0.2, Plate 1): 99.9%
- inhibition at 0.3 µM (SARS-CoV2; MOI 0.2, Plate 2): 100%
- inhibition at 0.3 µM (SARS-CoV2; MOI 0.4, Plate 1): 96.9%
- inhibition at 0.3 µM (SARS-CoV2; MOI 0.4, Plate 2): 91.4%
- inhibition at 0.3 µM (SARS-CoV2; MOI 0.6, Plate 1): 100%
- inhibition at 0.3 µM (SARS-CoV2; MOI 0.6, Plate 2): 100%
- inhibition at 0.3 µM (SARS-CoV2; [11]): 100%
- inhibition at 0.3 µM (SARS-CoV2; [12]): 101%
- inhibition at 0.6 µM (SARS-CoV2; MOI 0.2, Plate 1): 100%
- inhibition at 0.6 µM (SARS-CoV2; MOI 0.2, Plate 2): 99.7%
- inhibition at 0.6 µM (SARS-CoV2; MOI 0.4, Plate 1): 100%
- inhibition at 0.6 µM (SARS-CoV2; MOI 0.4, Plate 2): 67.4%
- inhibition at 0.6 µM (SARS-CoV2; MOI 0.6, Plate 1): 100%
- inhibition at 0.6 µM (SARS-CoV2; MOI 0.6, Plate 2): 99.7%
- inhibition at 0.6 µM (SARS-CoV2; [11]): 101%
- inhibition at 0.6 µM (SARS-CoV2; [12]): 101%
- inhibition of the MERS-CoV RNA polymerase (MERS-CoV Jordan virus): approximately 100%
- IC90 (SARS-CoV-2 [1]; Severe acute respiratory syndrome coronavirus 2, Vero C1008, VeroE6, read-out: Efficacy IC90): 55 nM and 0.017 µg/mL
- fold more effective against SARS-CoV-2 than Remdesivir (SARS-CoV-2 [1]; cells with highest infection rate (FIGS. 17A-17B: VeroE6, Calu3)): > 47 fold
- IC90 (SARS-CoV-2 [2]): 180 nM and 0.056 µg/mL
- Cytotoxicity (Vero E6 cells; 0.0047 μM, MOI 0.6, Plate 1): −3.314% and −2.167% and −3.385%
- Cytotoxicity (Vero E6 cells; 0.0047 μM, MOI 0.6, Plate 2): −3.314% and −2.167% and −3.385%
- Cytotoxicity (Vero E6 cells; 0.0094 μM, MOI 0.6, Plate 1): −0.2353% and −1.9307% and −0.5813%
- Cytotoxicity (Vero E6 cells; 0.0094 μM, MOI 0.6, Plate 2): −0.2353% and −1.9307% and −0.5813%
- Cytotoxicity (Vero E6 cells; 0.0188 μM, MOI 0.6, Plate 1): −0.5761% and 5.048% and 2.474%
- Cytotoxicity (Vero E6 cells; 0.0188 μM, MOI 0.6, Plate 2): −0.5761% and 5.048% and 2.474%
- Cytotoxicity (Vero E6 cells; 0.0375 μM, MOI 0.6, Plate 1): 14.23% and 14.79% and 16.69%
- Cytotoxicity (Vero E6 cells; 0.0375 μM, MOI 0.6, Plate 2): 14.23% and 14.79% and 16.69%
- Cytotoxicity (Vero E6 cells; 0.075 μM, MOI 0.6, Plate 1): 29.56% and 33.64% and 33.6%
- Cytotoxicity (Vero E6 cells; 0.075 μM, MOI 0.6, Plate 2): 29.56% and 33.64% and 33.6%
- Cytotoxicity (Vero E6 cells; 0.15 μM, MOI 0.6, Plate 1): 49.52% and 51.36% and 51.37%
- Cytotoxicity (Vero E6 cells; 0.15 μM, MOI 0.6, Plate 2): 49.52% and 51.36% and 51.37%
- Cytotoxicity (Vero E6 cells; [9]): 49.52% and 51.36% and 51.37%
- Cytotoxicity (Vero E6 cells; 0.3 μM, MOI 0.6, Plate 1): 66.57% and 64.56% and 64.1314%
- Cytotoxicity (Vero E6 cells; 0.3 μM, MOI 0.6, Plate 2): 66.57% and 64.56% and 64.1314%
- Cytotoxicity (Vero E6 cells; [10]): 66.57%
- Cytotoxicity (Vero E6 cells; 0.6 μM, MOI 0.6, Plate 1): 79.78% and 76.76% and 75.88%
- Cytotoxicity (Vero E6 cells; 0.6 μM, MOI 0.6, Plate 2): 79.78% and 76.76% and 75.88%
- toxicity margin or selectivity index, high (Vero E6 cells; 8 tests against SARS-CoV-2): 8.2
- toxicity margin or selectivity index, low (Vero E6 cells; 8 tests against SARS-CoV-2): 3.1
- average toxicity margin or selectivity index (Vero E6 cells; 8 tests against SARS-CoV-2, average): 4.8
- anti-cancer activity ([3]; Phase I clinical trials, humans): inactive against cancer
- tolerability in humans ([3]; Phase I clinical trials): well tolerated
- Reported Safe Clinical Dosing ([3]; daily dosing × 41): 0.12 mg/kg/day × 41
- MTD (not reached at highest single dose tested) ([3]; humans, Cavins 1967): > 0.3 mg/kg
- Observed toxic effect ([3]; humans, daily, highest dosing regimen 120 μg/kg/day × 41 days): 0
- Observed toxic effect ([3]; humans, thrice weekly, highest dosing regimen 50-250 μg/kg/day × 45 days): 0
- Observed toxic effect ([3]; humans, weekly, highest dosing regimen 200 μg/kg/day × 150 days): 0
- Effect [4]: lethal
- LD50, multi dose ([5]; × 9 days): 0.5 × 9 days mg/kg
- LD50, single dose [5]: 4 mg/kg
- LD50, total dose (multi dose) [5]: 4.5 mg/kg
- LD50, multi dose ([6]; × 14 days): 0.3 × 14 days mg/kg
- LD50, single dose [6]: 2.5 mg/kg
- LD50, total dose (multi dose) [6]: 4.2 mg/kg
- LD50, multi dose ([7]; × 24 days): 0.05 × 24 days mg/kg
- LD50, single dose [7]: 1.2 mg/kg
- LD50, total dose (multi dose) [7]: 1.2 mg/kg
- half-life in blood ([8]; Mice): 50 h
- cleared ([8]; mice, following 12 days post injection): 40%
